In ChEMBL document CHEMBL1201862, “PubChem BioAssay data set” (2004):
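Five compound concentrations were applied to cells in 96-well plates for 48 hours; endpoints were derived by simple linear interpolation of the resulting dose-response curve. Abbreviation: GI50, concentration required for 50% inhibition of growth.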 Active and inactive are the calls of the source. Rule as the data show it: active = GI50 up to about 1.1 µM and inactive = higher.

Key:
Test in all cases: NCI anticancer screen, dose series, 48 h
A498 = test system: A498
CAKI-1 = test system: CAKI-1
COLO 205 = test system: COLO 205
HOP-62 = test system: HOP-62
IGROV-1 = test system: IGROV-1
KM12 = test system: KM12
MOLT-4 = test system: MOLT-4
Malme-3M = test system: Malme-3M
NCI-H226 = test system: NCI-H226
NCI-H522 = test system: NCI-H522
OVCAR-3 = test system: OVCAR-3
RXF 393 = test system: RXF 393
SF-539 = test system: SF-539
SK-MEL-28 = test system: SK-MEL-28
SK-OV-3 = test system: SK-OV-3
SNB-75 = test system: SNB-75
SW-620 = test system: SW-620
HCC 2998 = test system: HCC 2998

Measured: GI50

O=C1c2ccccc2C(=O)N1Cc1ccccc1-c1c2nc(c(-c3ccccc3CN3C(=O)c4ccccc4C3=O)c3ccc([nH]3)c(-c3ccccc3CN3C(=O)c4ccccc4C3=O)c3nc(c(-c4ccccc4CN4C(=O)c5ccccc5C4=O)c4ccc1[nH]4)C=C3)C=C2
inactive: A498 > 100 µM | CAKI-1 > 100 µM | COLO 205 74 µM | HOP-62 > 100 µM | IGROV-1 > 100 µM | KM12 > 100 µM | MOLT-4 > 100 µM | Malme-3M > 100 µM | NCI-H226 > 100 µM | NCI-H522 > 100 µM | OVCAR-3 > 100 µM | RXF 393 > 100 µM | SF-539 > 100 µM | SK-MEL-28 > 100 µM | SK-OV-3 > 100 µM | SNB-75 > 100 µM | SW-620 > 100 µM

CCOc1ccc(NCC(=O)N2CC(=O)Nc3ccccc32)cc1
inactive: CAKI-1 > 100 µM | COLO 205 > 100 µM | HCC 2998 > 100 µM | HOP-62 > 100 µM | KM12 > 100 µM | MOLT-4 > 100 µM | Malme-3M > 100 µM | NCI-H226 > 100 µM | NCI-H522 > 100 µM | OVCAR-3 > 100 µM | RXF 393 > 100 µM | SF-539 > 100 µM | SK-MEL-28 > 100 µM | SK-OV-3 > 100 µM | SNB-75 > 100 µM | SW-620 > 100 µM

Cc1ccc(Sc2ccccc2[N+](=O)[O-])cc1
inactive: A498 47.6 µM | COLO 205 23.4 µM | HCC 2998 21 µM | HOP-62 32.1 µM | IGROV-1 83 µM | KM12 29.4 µM | MOLT-4 21.9 µM | Malme-3M 32.3 µM | NCI-H226 21.7 µM | OVCAR-3 31 µM | RXF 393 18 µM | SF-539 33 µM | SK-MEL-28 21.9 µM | SK-OV-3 34.4 µM | SNB-75 5.71 µM | SW-620 25.9 µM

Cc1c(C)c2cc3c(=O)c(CCl)coc3c(C)c2oc1=O
inactive: A498 > 100 µM | COLO 205 > 100 µM | HCC 2998 > 100 µM | HOP-62 > 100 µM | IGROV-1 > 100 µM | KM12 > 100 µM | MOLT-4 > 100 µM | Malme-3M > 100 µM | NCI-H226 > 100 µM | NCI-H522 95.3 µM | OVCAR-3 > 100 µM | RXF 393 57 µM | SF-539 > 100 µM | SK-MEL-28 > 100 µM | SK-OV-3 > 100 µM | SNB-75 76.4 µM | SW-620 > 100 µM

CC(C)=CCc1c(O)cc(O)c2c1OC(c1ccc(O)cc1)C(O)C2=O (centres undefined)
inactive: A498 42.2 µM | COLO 205 31 µM | HCC 2998 23.1 µM | HOP-62 19.3 µM | IGROV-1 32 µM | KM12 26.5 µM | MOLT-4 > 10 µM | Malme-3M 25.5 µM | NCI-H226 21.9 µM | NCI-H522 18.9 µM | OVCAR-3 19.2 µM | RXF 393 20.3 µM | SF-539 18.4 µM | SK-MEL-28 23.3 µM | SK-OV-3 38.4 µM | SNB-75 26.8 µM | SW-620 36.4 µM

C/C(CC(=O)Nc1ccc(Cl)cc1)=N\NC(=O)C[n+]1ccccc1
inactive: COLO 205 > 100 µM | HCC 2998 > 100 µM | HOP-62 > 100 µM | IGROV-1 > 100 µM | KM12 > 100 µM | MOLT-4 > 100 µM | Malme-3M > 100 µM | NCI-H226 > 100 µM | NCI-H522 75 µM | OVCAR-3 > 100 µM | RXF 393 > 100 µM | SF-539 > 100 µM | SK-MEL-28 > 100 µM | SK-OV-3 > 100 µM | SNB-75 > 100 µM | SW-620 > 100 µM

CC(C)c1cccc(C(C)C)c1NC(=S)Nc1ccccc1
inactive: A498 > 100 µM | COLO 205 > 100 µM | HCC 2998 > 100 µM | HOP-62 > 100 µM | IGROV-1 > 100 µM | KM12 > 100 µM | MOLT-4 > 100 µM | Malme-3M > 100 µM | NCI-H226 > 100 µM | OVCAR-3 > 100 µM | RXF 393 75.5 µM | SF-539 > 100 µM | SK-MEL-28 > 100 µM | SK-OV-3 > 100 µM | SNB-75 36.5 µM | SW-620 > 100 µM

COC(=O)C(CC(C)C)NC(=O)NC12CC3CC(CC(F)(C3)C1)C2 (centres undefined)
inactive: A498 > 100 µM | COLO 205 > 100 µM | HCC 2998 29.3 µM | HOP-62 > 100 µM | IGROV-1 > 100 µM | KM12 > 100 µM | MOLT-4 > 100 µM | Malme-3M > 100 µM | NCI-H522 > 100 µM | OVCAR-3 > 100 µM | RXF 393 > 100 µM | SF-539 > 100 µM | SK-MEL-28 > 100 µM | SK-OV-3 > 100 µM | SNB-75 27.1 µM | SW-620 > 100 µM

CCc1nnc(-c2nsc3ccccc23)s1
inactive: COLO 205 > 100 µM | HCC 2998 > 100 µM | HOP-62 > 100 µM | IGROV-1 76.9 µM | KM12 > 100 µM | MOLT-4 38.5 µM | OVCAR-3 24.1 µM | RXF 393 > 100 µM | SF-539 > 100 µM | SK-MEL-28 > 100 µM | SNB-75 35.9 µM | SW-620 > 100 µM

CCOC(=O)C1(C#N)C(c2ccccc2)CC(O)(c2ccc([N+](=O)[O-])cc2)C(C(=O)c2ccc([N+](=O)[O-])cc2)C1c1ccccc1 (centres undefined)
inactive: CAKI-1 > 100 µM | COLO 205 > 100 µM | HCC 2998 > 100 µM | HOP-62 > 100 µM | IGROV-1 > 100 µM | KM12 > 100 µM | MOLT-4 > 100 µM | Malme-3M > 100 µM | NCI-H226 > 100 µM | NCI-H522 34 µM | OVCAR-3 > 100 µM | RXF 393 15.5 µM | SK-MEL-28 > 100 µM | SK-OV-3 > 100 µM | SNB-75 21 µM | SW-620 > 100 µM

O=C1NC2OC(C(O)CO)C(O)C2O1 (centres undefined)
inactive: A498 > 100 µM | CAKI-1 > 100 µM | COLO 205 > 100 µM | HCC 2998 > 100 µM | IGROV-1 > 100 µM | KM12 > 100 µM | MOLT-4 > 100 µM | Malme-3M > 100 µM | NCI-H522 > 100 µM | OVCAR-3 > 100 µM | SK-MEL-28 > 100 µM | SK-OV-3 > 100 µM | SNB-75 > 100 µM | SW-620 > 100 µM

CC(=O)OC1CC2OC(Cc3ccccc32)O1 (centres undefined)
inactive: COLO 205 > 100 µM | HCC 2998 > 100 µM | HOP-62 > 100 µM | IGROV-1 > 100 µM | KM12 > 100 µM | MOLT-4 48.9 µM | Malme-3M 27.6 µM | NCI-H226 36.8 µM | NCI-H522 > 100 µM | OVCAR-3 > 100 µM | RXF 393 > 100 µM | SF-539 29.9 µM | SK-MEL-28 > 100 µM | SK-OV-3 > 100 µM | SNB-75 65 µM | SW-620 > 100 µM
